Source: patent US20250325467A1, “COMPOSITIONS FOR PREVENTING OR TREATING SKIN AGING” (ESTETRA SRL, priority 2021, published 2025)

Columns and labels:
[1] = Tissue distribution (QWBA) of [^14C]-estetrol after a single oral dose in non-pigmented rats; type: in vivo, rat; details: for Concentration of radioactivity, Skin: Non-pigmented / Tissue:Blood ratio, Skin: Non-pigmented: non-pigmented rats, single oral 15 mg/kg
Protocol: Times for analysis were: 0.5, 1, 2, 5, 8, 24 and 48 hours
Distribution of radioactivity in tissues was determined and quantified using the Fuji FLA-5100 fluorescent image analyser and associated Tina and SeeScan software. Tissue concentrations of radioactivity were determined using calibrated autoradiographic microscales produced by GE Healthcare. A standard curve was produced using the microscales from which tissue concentrations of radioactivity were determined (nCi/g). These values were then converted into pg equivalents/g using the specific activity of the dose formulation.
Radioactivity concentrations are also reported as […] equivalents/g.

[2] = as above; type: in vivo; details: single oral 15 mg/kg, 3 hour (Rat 08F)
[3] = Tissue distribution (QWBA) of [^14C]-estetrol after a single oral dose in partially pigmented rats; details: for Concentration of radioactivity, Skin: Non-pigmented / Concentration of radioactivity, Skin: Pigmented / Tissue:Blood ratio, Skin: Non-pigmented / Tissue:Blood ratio, Skin: Pigmented / Total amount of radioactivity, Skin (non-pigmented) / Total amount of radioactivity, Skin (pigmented): single oral 15 mg/kg
Protocol: Tissue distribution was determined in female rats (partially pigmented and non-pigmented) using [^14C]-estetrol.
A group of six female Lister Hooded rats each received a single oral dose of [^14C]-estetrol. At each selected time (see below) one animal was killed (by overdose of CO2) followed by immediate snap freezing in hexane/solid CO2. The carcasses were retained for examination of the tissue distribution of radioactivity using the technique of quantitative whole body autoradiography (QWBA).
Times for analysis were: (0.5, 8, and 24 hours, 7, 14 and 35 days)
Frozen carcasses were subjected to whole-body autoradiography.
Where concentrations are reported, radioactivity was assumed to be associated with [^14C]-estetrol or any metabolic products derived from [^14C]-estetrol. The specific activities of the dosed test compounds were used for the calculation of concentrations in all cases. Recoveries of radioactivity are reported as percentage of administered radioactivity (% dose). Radioactivity concentrations are also reported as pg equivalents/g.

[4] = partially pigmented rats, 0.5 hours
[5] = partially pigmented rats, 8 hours
[6] = partially pigmented rats, 24 hours
[7] = partially pigmented rats, 7 days
[8] = partially pigmented rats, 14 days
[9] = partially pigmented rats, 35 days

Substance: [^14C]-estetrol
- concentration of radioactivity, liver (greatest concentration) ([1]; female non-pigmented rats, single oral dose, 0.5 hours): 12.5 microgram equivalents/gram
- Concentration of radioactivity, Skin: Non-pigmented ([1]; 0.5 hours): 2.59 microgram equivalents/gram
- Tissue:Blood ratio, Skin: Non-pigmented ([1]; 0.5 hours): 1.05
- Concentration of radioactivity, Skin: Non-pigmented ([1]; 1 hour): 0.771 microgram equivalents/gram
- Concentration of radioactivity, Skin: Non-pigmented ([1]; 2 hours): 0.465 microgram equivalents/gram
- Tissue:Blood ratio, Skin: Non-pigmented ([1]; 2 hours): 1.72
- Concentration of radioactivity, Skin: Non-pigmented ([1]; 5 hours): 0.189 microgram equivalents/gram
- Tissue:Blood ratio, Skin: Non-pigmented ([1]; 5 hours): 1.66
- Concentration of radioactivity, Skin: Non-pigmented ([1]; 8 hours): 0.361 microgram equivalents/gram
- Tissue:Blood ratio, Skin: Non-pigmented ([1]; 8 hours): 1.77
- Concentration of radioactivity, Skin: Non-pigmented ([1]; 24 hours): BLQ
- Concentration of radioactivity, Skin: Non-pigmented ([1]; 48 hours): BLQ
- Tissue:Blood ratio, Skin: Non-pigmented [2]: 0.99
- concentration of radioactivity, liver (greatest concentration) ([3]; female partially pigmented rats, single oral dose, 0.5 hours): 13.7 μg equivalents/g
- Concentration of radioactivity, Skin: Non-pigmented [3, 4]: 1.89 microgram equivalents/gram
- Concentration of radioactivity, Skin: Pigmented [3, 4]: 2.85 microgram equivalents/gram
- Tissue:Blood ratio, Skin: Non-pigmented [3, 4]: 0.71
- Tissue:Blood ratio, Skin: Pigmented [3, 4]: 1.07
- Total amount of radioactivity, Skin (non-pigmented) [3, 4]: 1.136 % dose administered/tissue
- Total amount of radioactivity, Skin (pigmented) [3, 4]: 1.714 % dose administered/tissue
- Concentration of radioactivity, Skin: Non-pigmented [3, 5]: 0.090 microgram equivalents/gram
- Concentration of radioactivity, Skin: Pigmented [3, 5]: 0.161 microgram equivalents/gram
- Tissue:Blood ratio, Skin: Non-pigmented [3, 5]: 0.56
- Tissue:Blood ratio, Skin: Pigmented [3, 5]: 1.01
- Total amount of radioactivity, Skin (non-pigmented) [3, 5]: 0.059 % dose administered/tissue
- Total amount of radioactivity, Skin (pigmented) [3, 5]: 0.099 % dose administered/tissue
- Concentration of radioactivity, Skin: Non-pigmented [3, 6]: BLQ
- Concentration of radioactivity, Skin: Pigmented [3, 6]: 0.113 microgram equivalents/gram
- Total amount of radioactivity, Skin (non-pigmented) [3, 6]: <0.041 % dose administered/tissue
- Total amount of radioactivity, Skin (pigmented) [3, 6]: 0.061 % dose administered/tissue
- Concentration of radioactivity, Skin: Non-pigmented [3, 7]: BLQ
- Concentration of radioactivity, Skin: Pigmented [3, 7]: BLQ
- Total amount of radioactivity, Skin (non-pigmented) [3, 7]: <0.043 % dose administered/tissue
- Total amount of radioactivity, Skin (pigmented) [3, 7]: <0.043 % dose administered/tissue
- Concentration of radioactivity, Skin: Non-pigmented [3, 8]: BLQ
- Concentration of radioactivity, Skin: Pigmented [3, 8]: BLQ
- Total amount of radioactivity, Skin (non-pigmented) [3, 8]: <0.038 % dose administered/tissue
- Total amount of radioactivity, Skin (pigmented) [3, 8]: <0.038 % dose administered/tissue
- Concentration of radioactivity, Skin: Non-pigmented [3, 9]: BLQ
- Concentration of radioactivity, Skin: Pigmented [3, 9]: BLQ
- Total amount of radioactivity, Skin (non-pigmented) [3, 9]: <0.041 % dose administered/tissue
- Total amount of radioactivity, Skin (pigmented) [3, 9]: <0.041 % dose administered/tissue
- concentration of radioactivity, liver ([3]; partially pigmented rats, single oral dose, 7 days after dosing): 0.410 μg equivalents/g
- concentration of radioactivity, majority of tissues (BLQ) ([3]; partially pigmented rats, single oral dose, by 24 hours): < 0.076 μg equivalents/g
- concentration of radioactivity, all analyzed tissues except liver, including uveal tract and pigmented skin ([3]; partially pigmented rats, single oral dose, by 7 days): at or below the limit of quantification
